Measurements: patent US20050256168A1, “Compositions for oral administration for the treatment of interferon-responsive disorders” (priority 2004, published 2005)
“Also recorded” adds a separate entry of the source. Read-outs that look alike come from different tables or passages of the source.

Tests used:
[1] = system: bovine viral diarrhea virus (BVDV); assay: BVDV antiviral activity in tissue cultures of infected MDBK cells; assay type: cell-based
Text: The IC50 for 6-O-nonyl-deoxynojirimycin, for example, bovine viral diarrhea virus (BVDV), in tissue cultures of BVDV infected MDBK cells, a surrogate of hepatitis C virus is 3 micro-molar.

glucosidase = assay: Glucosidase inhibitory activity; assay type: biochemical
2′,5′ OAS gene = assay: Induction of 2′,5′ OAS genes in Hep G2 cells by R/T PCR and Southern blot-R/T PCR; conditions: 16 hours; for induction of medium (p69) and small (p40) 2′,5′ OAS genes: R/T PCR
Method: Hep G2 cells were treated with the indicated doses of A) alpha galactosyl ceramide or with B) N-9-oxadecyl-6-methyl-DGJ (b) for 16 hours and the induction of the medium (p69) and small (p40) isoforms of the […] OAS gene determined by R/T PCR. For each set, actin levels were also monitored as a control for loading. […] C) Southern blot- R/T PCR of RNA from Hep G2 cells treated with the indicated concentration of N-9-oxadecyl-6-methyl-DGJ or with 10^3 iU/mL interferon alpha (2a/2b) for 16 hours. Briefly, limited PCR was performed as described for 5, 10, 15 cycles and the PCR products transferred to nylon membrane before hybridization with a 1377 bp cDNA probe from nucleotides 1 to 1377 from the published OAS-40/46 gene (accession #X02874). Actin controls were performed in the same manner.
The ability of alpha galactosyl ceramide and N-9-oxadecyl-6-methyl-DGJ to directly induce the innate host defense pathway in tissue culture was determined by analysis of the induction of the 2′-5′ oligoadenylate synthetase genes (2′,5′ OAS) using an RT PCR based methodology.
Briefly, Hep G2 cells were incubated with either alpha galactose ceramide or the synthetic glycolipids shown in FIG. 1 for the desired length of time and the total RNA harvested using Tri-reagent as per manufactures directions (Gibco-BRL, Rockville, Md., USA). RNA samples were further purified using the Ambion DNA™ free kit, (Ambion, Inc., Austin, Tex., USA) before reverse transcriptase (RT) PCR with the PCR conditions and primers exactly as reported in the literature. PCR was performed in the absence of (RT) for 50 cycles to ensure no DNA contamination. Dilution experiments were used to ensure that PCR was within the linear range of the assay. Southern blot-R/T PCR of RNA from Hep G2 cells treated with the indicated concentration of N-9-oxadecyl-6-methyl-DGJ or with interferon alpha (2a/2b) for 16 hours was also performed to allow for quantification of induction. Briefly, limited PCR was performed as described above for 5, 10, 15 cycles and the PCR products transferred to nylon membrane. Hybridization was carried out using a 1377 bp cDNA probe from nucleotides I to 1377 from the published OAS40/46 gene (accession #X02874). OAS-40/46 specific bands were identified and quantified by phosphor image analysis [Bio-Rad, Hercules, Calif.].

HBV [2] = conditions: from Antimicrob Agents Chemother. 2002; 46(12): 4004-4008; cited from earlier work
HBV [3] = assay: Secretion of enveloped HBV DNA into culture medium of Hep G2 2.2.15 cells; assay type: cell-based, hepatitis B virus; conditions: for IC50: Hep G2 2.2.15 cells, 3 days, read-out: IC50 (anti-viral, HBV); for secretion of enveloped HBV (HBV rc DNA in culture medium): Hep G2 2.2.15, 3 days, alpha galactosyl ceramide 0.1-100 nM, N-9-oxadecyl-6-methyl-DGJ 0.8-25 μM, interferon alpha 10^3 iU/mL
Hep G2 2.2.15 cells = assay: MTT toxicity test; assay type: cell-based
Method: A) Alpha galactosyl ceramide inhibits HBV in vitro. […] Briefly, Hep G2 2.2.15 cells, which secrete hepatitis B virus, were either left untreated or treated with 10^3 iU/mL of interferon alpha (2a/2b) or 0.1 nM to 100 nM of alpha galactosyl ceramide for three days and the amount of HBV specific DNA detected in the culture medium using a method which discriminates between enveloped and non enveloped viral particles. The HBV rc DNA, which decreases with both interferon and alpha galactose ceramide treatment is indicated. […] Hep G2 2.2.15 cells were left untreated or treated with varying doses of the synthetic glycolipid N-9-oxadecyl-6-methyl-DGJ (0.8 μM to 25 μM) for 3 days and the level of HBV secreted into the culture medium detected as before. […] The HBV rc DNA, which decreases with N-9-oxadecyl-6-methyl-DGJ, interferon, and alpha galactosyl ceramide treatment is indicated. C-D) Cells treated with alpha-galactosyl ceramide or the synthetic glycolipid N-9-oxadecyl-6-methyl-DGJ were tested for viability using the standard MTT toxicity test. For panel C: X-axis: From left to right: Untreated cells; Alpha galactosyl ceramide at 10 μM, 5 μM, 2.5 μM, 1 μM, 0.5 μM, 0.1 μM. Y-axis, percent viability as compared to untreated group. For Panel D: X-axis: From left to right: Untreated cells; N-9-oxadecyl-6-methyl-DGJ at 2000 μM, 800 μM. 400 μM, 200 μM, 100 μM, 10 μm. Y-axis, percent viability as compared to untreated group.
Toxicity was determined by mitochondrial toxicity testing (MTT) of cells that had been exposed to compounds in a manner similar to the anti-viral assays except cells were treated in 24 well trays. Briefly, Hep G2 2.2.15 cells were treated with drug as indicated in the figure legends for 3 days, the media removed and replaced with 100 μl of a 10 mg/ml solution of tetrazolium bromide [[3-[4,5-dimethylthiazol-2-yl]-2,5-diphenyltetrazolium bromide, Sigma Chemicals] for one hour at 37° C. Addition of 100-200 μl of dimethylsulfoxide (DMSO) led to color development. Supernatants were removed and placed in a 96 well tray for analysis. OD values were read at 590 nm.

HCV replicon = assay: HCV subgenomic replicon RNA level in 9-13 cells (Northern blot); assay type: cell-based, hepatitis C virus; conditions: 48 hours
Method: A) Total RNA was isolated, resolved through agarose gels and hybridized to a radioactive probe specific for HCV NS5B. After washing, the blot was and re-probed with radioactive beta-actin specific sequences to control for loading of lanes.
Beta-actin protein and RNA were used as controls in these experiments.
9-13 cells were seeded in T25 flask at 3×10^6 cells. […] Northern blot analysis was done to analyze HCV replicon RNA level.
Briefly, 2 μg total RNA was electrophoresed through a 1.0% agarose gel containing 2.2 M formaldehyde, transferred to a nylon membrane and immobilized by Lw cross-linking (Stratagene). Hybridization was carried out using an alpha-[^32P]CTP-labeled probe with random primers on a 2 kb NS5B DNA fragment in a quick hybridization solution (Amersham Bioscience, Piscataway, N.J.) for 16 h at 65° C. The membranes were washed once in 2×SSC/0.1% SDS for 30 min at room temperature and twice in 0.1×SSC/0.1% SDS for 30 min at 65° C.

[4] = system: HBsAg, core antigen, HBV polymerase; assay: Effect on HBsAg and core antigen production or secretion and HBV polymerase activity; assay type: cell-based, hepatitis B virus; conditions: at concentrations that were highly anti-viral
Text: Both alpha galactosyl ceramide and the “alkovirs”, described herein, have anti-hepatitis B virus activity (FIG. 2).
This indicates both that the compounds were both well tolerated at these concentrations and that the anti-viral activity cannot be explained by a direct effect upon the synthesis of viral products but rather through the activation of a cellular defense mechanism.

For `CCCCCCCCCOCC1NCC(O)C(O)C1O` (centres unmarked) [6-O-nonyl-deoxynojirimycin], the IC50 ([1]; BVDV infected MDBK cells, surrogate of hepatitis C virus, read-out: IC50 against BVDV) was 3 µM, the antiviral activity ([1]; virus not named at b41, BVDV assumed) was “retains antiviral activity” and the glucosidase inhibitory activity (glucosidase) was “no glucosidase inhibitory activity”.
In the case of `CCOCCCCCCN1CC(O)C(O)C(O)C1C(C)O` (centres unmarked) [N-7-oxanonyl-6-methyl-DGJ], the “induction of medium (p69) and small (p40) 2′,5′ OAS genes” value (“induction of medium (p69) and small” below) (2′,5′ OAS gene) is listed as “did not detectably induce 2′,5′ OAS gene expression” and the “anti-viral activity against hepatitis B virus” value (HBV [2]) is listed as “no anti-viral activity against hepatitis B virus; also recorded: limited anti viral activity against HBV”.
For `COCCCCCCCCN1CC(O)C(O)C(O)C1C(C)O` (centres unmarked) [N-9-oxadecyl-6-methyl-DGJ], the IC50 (HBV [3]) was roughly 1 µM, the “secretion of enveloped HBV (HBV rc DNA in culture medium)” value (“secretion of enveloped HBV” below) (HBV [3]) was “exerted anti-viral activity at varying doses” and the CC50 (Hep G2 2.2.15 cells) was greater than 2000 µM. For the same molecule, the toxicity (Hep G2 2.2.15 cells) was “little or no toxicity”, the “fold induction of the 2′,5′ OAS gene” value (2′,5′ OAS gene; 70 μM, Southern blot-R/T PCR) was 20 fold and the “induction of medium (p69) and small” value (2′,5′ OAS gene) was “induced only the small (p40) 2′,5′ OAS gene expression”. The “fold increase in 2′,5′ OAS gene expression” value (2′,5′ OAS gene; lower concentrations (below 70 μM), dose dependent) was 2-15 fold, the IC50 (HCV replicon; 9-13 cells, three separate experiments, read-out: IC50 for reduction of HCV RNA) was 1.5 µM and the “effect upon HBsAg production or secretion, core antigen production or secretion or HBV polymerase activity” value [4] was “Neither Alpha Galactosyl Ceramide or N-9-oxadecyl-6-methyl-DGJ had any Detectable Effect”.
In the case of `CCCCCCCCCCCCCCCCCCCCCCCCCC(=O)N[C@@H](CO[C@H]1O[C@H](CO)[C@H](O)[C@H](O)[C@H]1O)[C@H](O)[C@H](O)CCCCCCCCCCCCCC` [alpha galactosyl ceramide, reference compound], the IC50 (HBV [3]) is reported as roughly 0.0004 µM, the “secretion of enveloped HBV” value (HBV [3]) is reported as “inhibited the secretion of enveloped HBV” and the toxicity (Hep G2 2.2.15 cells; FIG. 2-3) is reported as “little or no toxicity”. The CC50 (Hep G2 2.2.15 cells; Hep G2 2.2.15 cells, 3 days, MTT, read-out: CC50) was 8 µM, the “induction of medium (p69) and small” value (2′,5′ OAS gene) was “induced only the small (p40) 2′,5′ OAS gene expression” and the “effect upon HBsAg production or secretion, core antigen production or secretion or HBV polymerase activity” value [4] was “Neither Alpha Galactosyl Ceramide or N-9-oxadecyl-6-methyl-DGJ had any Detectable Effect”.
In the case of interferon alpha, the “secretion of enveloped HBV” value (HBV [3]) is reported as “inhibits secretion effectively”, the “induction of medium (p69) and small” value (2′,5′ OAS gene) is reported as “potent inducer of both the medium (p69) and small (p40) 2′,5′ OAS genes” and the “replication of HCV RNA in 9-13 cells” value (HCV replicon) is reported as “sensitive to interferon alpha”.
